We go through 1 compound from US20220062299A1, “USE OF GLUCOCORTICOID STEROIDS IN PREVENTING AND TREATING CONDITIONS OF MUSCLE WASTING, AGING AND METABOLIC DISORDER” (NORTHWESTERN UNIVERSITY, priority 2018, published 2022).

Assay [1] relates to aging Wildtype (WT) mice. The assay is described as follows: Aging wildtype mice, 40 weeks weekly prednisone. In kind it is in vivo, mouse. How it is done:
Dosing of metabolic and endocrine biomarkers. Glycogen was quantitated using the Glycogen Assay Kit (#ab65620; Abcam, Cambridge, Mass.) from approximately 25 mg frozen-pulverized whole tissue, following manufacturer's instructions and internal standards for calculating μg/mg values. For measurement of whole-tissue ATP/NAD^+ levels, approximately 25 mg frozen-pulverized tissue was extracted in 10% perchloric acid and neutralized in 0.75 M K2CO3, as previously described (Ramsey et al., 2009). NAD+ and ATP were measured by high-pressure liquid chromatography (HPLC) with Shimadzu LC-20A pump (Shimadzu Scientific Instr Inc, Addison, Ill.) and UV-VIS detector, using a Supelco LC-18-T column (15 cm×[…]; #58970-U; Millipore-Sigma, St Louis, Mo.). […] ATP and NAD^+ eluted as sharp peaks at 3 and 14 minutes, respectively, and were normalized to tissue weight of frozen liver tissue for calculating pmol/mg values. Corticosterone was measured in mouse serum and cortisol was measured in human serum using dedicated ELISA kits (#ADI-900-097, Enzo Life Science, Farmingdale, N.Y.; #K7430-100, BioVision, Milpitas, Calif.) according to manufacturer's instructions and internal standards to calculate ng/ml values. Insulin levels were quantitated in mouse and human serum with species-specific ELISA kits (#10-1247-01 (mouse-specific); #10-1113-01 (human-specific); Mercodia, Uppsala, Sweden), following manufacturer's instructions and internal standards to calculate ng/ml values. Free fatty acids were quantitated using Enzychrom Free Fatty Acid Assay kit (#EFFA-100; BioAssay Systems, Hayward, Calif.), following kit's instructions and standards to calculate μM (serum) and nmol/mg (tissue) values. For ketone body dosing, beta-hydroxybutyrate was quantitated using a dedicated colorimetric assay kit (#700190; Cayman Chemical, Ann Arbor, Mich.), following manufacturer's instructions and standards to calculate μM (serum) and nmol/mg (tissue) values. […] Colorimetric reactions were quantitated using a Synergy HTX multi-mode plate reader (BioTek®, Winooski, Vt.) and averaging four reads/sample at appropriate wavelengths. […]
Histology. […] Myofiber/adipocyte CSA quantitation was conducted on 400 myofibers/adipocytes per tissue per mouse. […] Area quantitation was performed by means of ImageJ (Schneider et al., 2012). Sample processing, imaging and CSA quantitation were conducted blinded to treatment groups.
Muscle function, whole-body plethysmography, echocardiography. Forelimb grip strength was monitored using a meter (Cat #1027SM; Columbus Instruments, Columbus, Ohio) blinded to treatment groups. […]

The subject of assay [2] is isolated dystrophic myofibers. The assay is described as follows: 2-NBDG uptake assay in live myofibers. The assay is classed as in vivo, mouse. To be noted: mdx mice; weekly prednisone. As to the method: 2-NBDG uptake assay and glycemia/lactate monitoring. 2-NBDG uptake assay in live myofibers was conducted adapting previously reported conditions (Zou et al., 2005). FDB muscles were collected and carefully treated with collagenase type II and hand pipetting to liberate single myofibers, following reported procedures (Demonbreun and McNally, 2015). Myofibers from two FDB muscles were collected in 1 ml Ringer's solution (for 1 l, 7.2 g NaCl, 0.17 g CaCl2, 0.37 g KCl; pH, 7.4). 200 μl of myofiber suspension were dispensed per well of chambered coverglass (#155382; Thermo Fisher, Waltham, Mass.) and imaged as baseline condition for both transmitted light (1 ms integration) and green fluorescent channels (100 ms integration) at the Zeiss Axio Observer A1 microscope, using 20× short-range objective and the ZEN 2 software (version 2011; Zeiss, Jena, Germany). […] 2-NBDG uptake was quantitated as relative fluorescent units, calculated as intra-myofiber fluorescence after incubation subtracted of average baseline fluorescence. Fluorescence intensity was quantitated through serial analysis of acquired images (3 areas of approximately 85 μm^2 were analyzed for average fluorescence value per myofiber; >10 myofibers were analyzed per mouse) with ImageJ software (Schneider et al., 2012). […]

[3] abbreviates: aging WT mice, weekly prednisone, 40 weeks.

Molecules are shown by their SMILES.

`C[C@]12C=CC(=O)C=C1CC[C@@H]1[C@@H]2C(=O)C[C@@]2(C)[C@H]1CC[C@]2(O)C(=O)CO` [prednisone, Prednisone]: the “grip strength, tetanic and specific force, and muscle mass (myofiber CSA)” value in assay [1] (aged WT mice, weekly prednisone, 40 weeks) is reported as “improved”. Besides, in assay [1] (aging WT mice, weekly prednisone 1 mg/kg i.p., 40 weeks from the age of 6 weeks), the “levels of ATP, NAD+ and glycogen in muscle and heart tissues” value is “increased”. Further, in assay [1] (setting [3]), the “parameters of cardiac contractile function (echocardiography)” value is reported as “improved” and the “parameters of respiratory function (whole-body plethysmography)” value was “improved”. Moreover, in assay [2], the “myogenic glucose uptake (2-NBDG in isolated myofibers)” value was “enhanced”.
